Assays:
[1] = test system: unicortical defect in mouse tibia; test: Unicortical defect model, direct injection, microCT; type: in vivo, C57BL/6 mice
Method: Unicortical Defect Model: Male 3-week old C57BL/6 mice (n=5 per treatment group) were injected with met5, naloxone or naltrexone following the creation of a unicortical defect. Briefly, a small incision (approximately 3-mm) was made just below the knee joint, located on the medial side of the tibia just below the tibial tuberosity on the tibial crest. In young animals the physeal plate is clearly visible and the drill bit was placed approximately 1-mm below this point. The drill-bit produces a unicortical defect with dimensions 300-μm diameter×1-mm depth. A Hamilton Neuros RN 10-μL syringe with a 33-gauge blunt tip needle was used to inject 2-μL of met5 (28.7-μg), naloxone (400-μg) or naltrexone (378-μg) resuspended in saline directly into the unicortical defect at a rate no faster than approximately 0.1-μL per second. The left-limb tibias served as contra-lateral surgical controls, in which animals received a unicortical defect and 2-μL of saline was injected. Mice were euthanized 5-days after surgery, hind limbs were collected and tibias were fixed for immunofluorescence, TRAP staining and OTC associated bone growth.
(§1) MicroCT Analysis of Unicortical Defects: High-resolution images of the tibia were acquired with μCT imaging system (μT40; Scanco Medical). Tibias were scanned at 45-keV with an isotropic voxel size of 12-μm. An analysis region was selected from axial sections to include the entire unicortical defect bounded by the endosteal cortical wall. The volume corrected bone volume (bone volume/total volume; By/Tv), trabecular number (TbN) and trabecular thickness (TbTh) were calculated using the Scanco software.

[2] = test system: SaO52 osteosarcoma tumor cells; test: Assay of cell number (MTT), osteosarcoma cells; type: cell-based; details: 1-mM, seventy-two hours
Description: Methods: Human bone marrow was collected from consenting adult patients undergoing either an elective primary proximal femoral total hip arthroplasty or elective primary distal femoral total knee arthroplasty (n=6, mean age 65) as a part of an IRB approved study. Human MSC were derived from the adherent fraction of whole bone marrow aspirates. Ewing's sarcoma tumor cells (RDES, Hs822 and Hs863) and SaOS2 osteosarcoma tumor cells were obtained from ATCC. Cells were maintained in Dulbecco's Modification of Eagle's Media (DMEM) containing 10% fetal calf serum (v/v) and 1% penicillin-streptomycin-glutamine (PSG; Cellgro, Mediatech).
Assay of Cell Number: Following the addition of 1-mM naloxone or 1-mM naltrexone, viable cell number was determined with the MTT assay. After 72-hours and 120-hours, MTT (5 mg/ml (w/v), Sigma) was added to each well, incubated for 2-hours, after which the cells lysed with 500-μl of DMSO (Sigma). MTT was measured at 570-nm and the effects of therapy on cell proliferation were determined by normalizing treated wells relative to mean values from non-treated wells: Fold change in cell number=100*[treated cells optical density/mean control optical density].

[3] = test system: unicortical defect in mouse tibia; test: Opioid antagonist containing collagen implant in unicortical defect model, microCT; type: in vivo, C57BL/6 mice; details: 7 days after surgery
Description: Implantation of Opioid Antagonist Containing Collagen Implant into a Unicortical Defect Model: Male 5-week old C57BL/6 mice (n=5 per treatment group for a total of 25 total animals) were used in this study. […] Unicortical defects were surgically administered through a small incision (approximately 3-mm) made just below the knee joint, located on the medial side of the tibia just below the tibial tuberosity on the tibial crest. In 5-weeks old male mice, the physeal plate is clearly visible and the drill bit was placed approximately 1-mm below this point. The drill-bit produces a unicortical defect with dimensions 300-μm diameter×1-mm depth. […] In parallel, a separate group of animals served as non-surgical controls. Mice were euthanized 7-days after surgery, hind limbs were collected and tibias were prepared for micro-CT (μCT) analysis.
as §1

[4] = test system: monocytes cultured to become osteoclasts; test: TRAP staining and assay of osteoclast number; type: cell-based, human, mouse
Method: TRAP Staining and the Assay of Osteoclast Number: Osteoclasts were derived from either an enriched population of human monocytes or from mouse non-enriched whole bone marrow aspirates. Three human patient bone marrow samples were assayed in parallel with samples collected from 3-week (n=10) mouse bone marrow. The monocyte fraction was stimulated to become osteoclasts by culturing 1×10^6 cells with 25-ng/mL of MCSF and 25-ng/mL of recombinant human or mouse RANK-ligand (R&D Systems) in the presence of the met5-ligand ([5-μM] 2.87-, or [50-μM] 28.7-μg; Sigma), naloxone (400-ng or 400-μg; Sigma) or naltrexone (378-ng or 378-μg; Sigma). Osteoclasts were stained with tartrate resistant acid phosphatase (TRAP; Sigma Leukocyte Acid Phosphatase Kit 387-A) and counted when cells stained TRAP-positive and had at least three nuclei. Estimates of osteoclast number were obtained by Cavalieri sampling and a modification of the fractionator technique.

[5] = collagen implant, 25-ng BMP2, 1-mM naltrexone or 1-mM naloxone

C=CCN1CC[C@]23c4c5ccc(O)c4O[C@H]2C(=O)CC[C@@]3(O)[C@H]1C5 [naloxone]
increase in trabecular number (TbN) ([1]; 1-mM injected into defect): 1.2 fold
increase in bone mass (Bv/Tv) ([1]; 1-mM injected into defect, relative to control PBS or met5 treated defects): 1.53 fold
bone healing ([1]; naloxone 1-mM or met5 50-μM): increased bone healing
SaO52 osteosarcoma cell number relative to control cultures [2]: decreased significantly
increase in trabecular thickness relative to all other treatment groups ([3]; 1-mM naloxone with collagen implant): approximately 37%
Bv/Tv relative to non-surgical controls ([3]; collagen implant): increased relative to non-surgical controls
trabecular thickness (TbTh) relative to the control non-surgical group ([3]; collagen implant): increased within the defect significantly
increase in Bv/Tv relative to BMP2 treatment group ([3]; collagen implant, 1-mM): 18.2%
increase in Bv/Tv relative to the PBS treated group [3, 5]: 56.5%
increase in Bv/Tv relative to the surgical control group [3, 5]: 83.8%
osteoclast number (TRAP staining) ([4]; 1-mM): reduced osteoclast number substantially
osteoclast number (TRAP staining) ([4]; 1-μM): did not significantly reduce osteoclast number

Source: US12258561B2, “Compositions and methods to promote bone formation and their uses including for the treatment of cancer” (THE RESEARCH FOUNDATION FOR THE STATE UNIVERSITY OF NEW YORK, priority 2014, dated 2025)
